Where “and” joins values, the source holds several entries; their conditions need not be identical. Equal entries are not always repeated. Entries after “also recorded” stand apart in the source; their conditions may differ.
Experiments:
[1] = biological target: T1, CYP3A4 (Homo sapiens, UniProt P08684); details: for AUC0-tz, Ratio of Geometric LSMs (%) / AUCinf, Ratio of Geometric LSMs (%) / Cmax, Ratio of Geometric LSMs (%): 100 * Test/Reference, midazolam with 350 mg relacorilant (Day 14) vs midazolam alone (Day 1)
Experimental: (§1) An open-label, crossover study was conducted in healthy subjects to determine the effect of relacorilant on the plasma exposure of midazolam, a known substrate of CYP3A4, and pioglitazone, a known substrate of CYP2C8. A single dose of midazolam 2.5 mg was administered alone and intensive pharmacokinetic (PK) samples were collected before dosing (0 hour) and at 0.25, 0.5, 1, 1.5, 2, 4, 6, 8, 12, 16, and 24 hours post-dose. […] Relacorilant 350 mg was then administered once a day for 9 consecutive days. On the tenth day of once-daily relacorilant dosing, a single dose of midazolam 2.5 mg was administered in combination with relacorilant 350 mg and intensive PK samples were again collected at pre-dose though 24 hours post-dose.

[2] = biological target: T1, CYP3A4; experiment: clinical; details: in vivo, po, 2.5 mg
Experimental: as §1

[3] = biological target: T2, CYP2C8 (Homo sapiens, UniProt P10632); experiment: Clinical drug-drug interaction study in healthy volunteers: effect of relacorilant on plasma pioglitazone (CYP2C8 substrate)
T2 sequence (P10632 1-490): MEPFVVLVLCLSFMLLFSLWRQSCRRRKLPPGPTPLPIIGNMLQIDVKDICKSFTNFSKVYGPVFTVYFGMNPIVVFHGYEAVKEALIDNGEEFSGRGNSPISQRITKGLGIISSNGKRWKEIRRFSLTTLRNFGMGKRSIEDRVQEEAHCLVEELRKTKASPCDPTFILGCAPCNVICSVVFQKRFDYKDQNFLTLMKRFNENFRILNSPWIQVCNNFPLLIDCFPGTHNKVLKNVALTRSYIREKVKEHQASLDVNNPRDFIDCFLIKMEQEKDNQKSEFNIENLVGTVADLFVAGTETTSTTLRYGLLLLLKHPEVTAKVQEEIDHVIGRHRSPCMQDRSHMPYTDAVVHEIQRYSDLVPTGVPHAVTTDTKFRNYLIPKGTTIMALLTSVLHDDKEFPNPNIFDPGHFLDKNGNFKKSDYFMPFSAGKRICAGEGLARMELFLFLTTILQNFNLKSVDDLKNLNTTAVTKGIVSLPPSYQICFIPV
Experimental: An open-label, crossover study was conducted in healthy subjects to determine the effect of relacorilant on the plasma exposure of midazolam, a known substrate of CYP3A4, and pioglitazone, a known substrate of CYP2C8. A single dose of midazolam 2.5 mg was administered alone and intensive pharmacokinetic (PK) samples were collected before dosing (0 hour) and at 0.25, 0.5, 1, 1.5, 2, 4, 6, 8, 12, 16, and 24 hours post-dose. On the following day, a single dose of 15 mg of pioglitazone was administered alone and intensive PK samples were collected before dosing (0 hour) and at 0.5, 1, 1.5, 2, 2.5, 3, 4, 6, 8, 12, 18, 24, 36, 48, 60, and 72 hours post-dose. Relacorilant 350 mg was then administered once a day for 9 consecutive days. On the tenth day of once-daily relacorilant dosing, a single dose of midazolam 2.5 mg was administered in combination with relacorilant 350 mg and intensive PK samples were again collected at pre-dose though 24 hours post-dose. On the following day, a single dose of 15 mg of pioglitazone was administered in combination with relacorilant 350 mg and intensive pharmacokinetic (PK) samples were again collected at pre-dose through 72 hours post-dose. The plasma concentrations of midazolam and its metabolite, 1-OH midazolam, and pioglitazone and its metabolite, pioglitazone M4 were evaluated by validated bioanalytical assays on each of dosing occasions of midazolam or pioglitazone.

[4] = Pharmacokinetics of nab-paclitaxel alone or with relacorilant in patients with advanced solid tumors (Study CORT125134-550); type: in vivo, human; details: cancer patients; same dose administered alone as comparison
Source text: The combination of relacorilant and nab-paclitaxel has been evaluated in patients with advanced solid tumors.

[5] = biological target: T2, CYP2C8; experiment: In vitro CYP inhibition assay, Assay 1 (3-CYP mix); type: in vitro ADME; set-up: from tissue; host or cells: healthy human subjects, in vivo (endogenous enzyme); details: CYP2C8 expressed in E. coli, substrate amodiaquine, 10 min incubation, 37° C., pH 7.4
Experimental: Cytochrome P450 (CYP) isoforms CYP2B6, CYP2C8 and CYP3A5, heterologously expressed in E. coli, were obtained from Cypex and mixed to produce a 3-CYP mix. […] A selective and FDA accepted substrate for each isoform was present in the reaction at a concentration around its Km.
(§2) The CYP mix and a CYP substrate cocktail were added and the tubes warmed for 3 minutes whilst mixing on a BioShake IQ (37° C., 1500 rpm). NADPH (final concentration 1 mM) was added and the mixture was incubated for 10 minutes. Methanol containing an internal standard (1 μM tolbutamide) was then added to all samples, and these were mixed and placed at −20° C. for ≥1 hour to quench the reaction and allow protein to precipitate.
All samples were centrifuged (2500×g, 20 minutes, 4° C.). The supernatants were transferred to a fresh 96 well plate, compatible with an autosampler. The plate was sealed with a pre-slit silicone mat and the metabolites were analyzed by LC-MS/MS.
Control CYP inhibitors (IC50—appropriate concentration range, final assay concentration 1% DMSO) were added as a cocktail. […]
In Assay 1, the final concentration of the 3-CYP mix was 18 pmol/mL for CYP2B6 (where pmol is picomoles), 1 pmol/mL for CYP2C and 5 pmol/mL for CYP3A5. […] The metabolites measured were: CYP2B6, hydroxybupropion; CYP2C8, N-desethyl amodiaquine; CYP3A5, 1′-hydroxymidazolam. […]

[6] = biological target: T1, CYP3A4; experiment: In vitro CYP inhibition assay, Assay 2 (5-CYP mix); type: in vitro ADME; set-up: from tissue; host or cells: healthy human subjects, in vivo (endogenous enzyme); details: CYP3A4 expressed in E. coli, substrate midazolam, 10 min incubation, 37° C., pH 7.4
Experimental: In a separate assay, isoforms for CYP1A2, CYP2C9, CYP2C19, CYP2D6, and CYP3A4 heterologously expressed in E. coli and obtained from Cypex as a custom made mixture of 5 isoforms. A selective and FDA accepted substrate for each isoform was present in the reaction at a concentration around its Km.
as §2
All samples were centrifuged (2500×g, 20 minutes, 4° C.). […] The plate was sealed with a pre-slit silicone mat and the metabolites were analyzed by LC-MS/MS. […]
In Assay 2, the final concentration of the 5-CYP mix was 32.5 pmol/ml for each of the enzymes evaluated (i.e., CYP1A2, CYP2C9, CYP2C19, CYP2D6, and CYP3A4). […]
In Assay 2, the CYP substrate cocktail comprised the following components: CYP1A2, tacrine; CYP2C9, diclofenac; CYP2C19, (S)mephenytoin; CYP2D6, bufuralol; CYP3A4, midazolam. The metabolites measured were: CYP1A2, 1-hydroxytacrine; CYP2C9, 4′-hydroxydiclofenac; CYP2C19, 4′-hydroxymephenytoin; CYP2D6, hydroxybufuralol; CYP3A4, 1′-hydroxymidazolam. […]

[7] = plasma, healthy subjects, single oral 2.5 mg midazolam hydrochloride alone, Day 1
[8] = plasma, healthy subjects, single oral 2.5 mg midazolam hydrochloride with 350 mg relacorilant, Day 14
[9] = 100 * Test/Reference, pioglitazone with 350 mg relacorilant (Day 15) vs pioglitazone alone (Day 2)

T1 sequence (P08684 whole entry): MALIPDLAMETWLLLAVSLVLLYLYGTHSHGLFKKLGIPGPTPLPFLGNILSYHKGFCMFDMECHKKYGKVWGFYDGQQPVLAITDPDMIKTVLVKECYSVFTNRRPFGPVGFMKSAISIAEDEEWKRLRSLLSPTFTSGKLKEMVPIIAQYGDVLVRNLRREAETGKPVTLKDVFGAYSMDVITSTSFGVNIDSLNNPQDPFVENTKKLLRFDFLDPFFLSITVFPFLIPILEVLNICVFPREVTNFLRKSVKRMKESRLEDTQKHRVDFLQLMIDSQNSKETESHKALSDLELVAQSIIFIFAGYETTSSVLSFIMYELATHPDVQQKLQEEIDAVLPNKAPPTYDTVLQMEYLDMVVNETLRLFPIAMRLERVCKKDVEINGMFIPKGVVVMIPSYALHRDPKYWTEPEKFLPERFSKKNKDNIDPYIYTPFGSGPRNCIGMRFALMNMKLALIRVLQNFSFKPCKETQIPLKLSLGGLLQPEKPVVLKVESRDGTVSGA

## OCc1ncc2n1-c1ccc(Cl)cc1C(c1ccccc1F)=NC2 [1-OH midazolam]
[1]
  AUC0-tz, Ratio of Geometric LSMs (%): 796.64%
  AUCinf, Ratio of Geometric LSMs (%): 814.51%
  Cmax, Ratio of Geometric LSMs (%): 164.86%
[1]; [7]
  AUC0-tz, Geometric LSM, Reference (Day 1) Treatment A: 9.360 ng·h/mL
  AUCinf, Geometric LSM, Reference (Day 1) Treatment A: 10.28 ng·h/mL
  Cmax, Geometric LSM, Reference (Day 1) Treatment A: 4.038 ng/mL
[1]; [8]
  AUC0-tz, Geometric LSM, Test (Day 14) Treatment D: 74.56 ng·h/mL
  AUCinf, Geometric LSM, Test (Day 14) Treatment D: 83.72 ng·h/mL
  Cmax, Geometric LSM, Test (Day 14) Treatment D: 6.657 ng/mL

## Cc1ncc2n1-c1ccc(Cl)cc1C(c1ccccc1F)=NC2 [Midazolam, midazolam]
[1]
  AUC0-tz, Ratio of Geometric LSMs (%): 878.43%
  AUCinf, Ratio of Geometric LSMs (%): 892.81%
  Cmax, Ratio of Geometric LSMs (%): 310.98%
[1]; healthy subjects, once daily relacorilant 350 mg
  increase in plasma exposure (AUCinf) when administered with relacorilant, relative to midazolam alone: 8 fold and > 8 fold
[2]
  AUC(0-inf): 33 ng·h/mL
  AUC(0-t): 30.9 ng·h/mL
  Cmax: 11.8 ng/mL

## CC(O)c1ccc(CCOc2ccc(CC3SC(=O)NC3=O)cc2)nc1 (stereo not drawn) [Pioglitazone M4]
[3]; human, in vivo, po, 15 mg
  AUC0-tz, Geometric LSM, Reference (Day 2) Treatment B: 10460 ng·h/mL
  AUCinf, Geometric LSM, Reference (Day 2) Treatment B: 12890 ng·h/mL
  Cmax, Geometric LSM, Reference (Day 2) Treatment B: 237.3 ng/mL

## CCc1ccc(CCOc2ccc(CC3SC(=O)NC3=O)cc2)nc1 (stereo not drawn) [Pioglitazone, pioglitazone]
[3]; [9]
  AUC0-tz, Ratio of Geometric LSMs (%): 74.71%
  AUCinf, Ratio of Geometric LSMs (%): 74.83%
  Cmax, Ratio of Geometric LSMs (%): 77.82%
[3]; healthy volunteers, once daily relacorilant 350 mg, pioglitazone 15 mg
  change in plasma exposure/concentration when administered with relacorilant: no increase; also recorded: did not increase
[3]; human, plasma, po, 15 mg
  AUC(0-inf): 5410 ng·h/mL
  AUC(0-t): 5290 ng·h/mL
  Cmax: 484 ng/mL

## CC(=O)O[C@H]1C(=O)[C@@]2(C)[C@H]([C@H](OC(=O)c3ccccc3)[C@]3(O)C[C@H](OC(=O)[C@H](O)[C@@H](NC(=O)c4ccccc4)c4ccccc4)C(C)=C1C3(C)C)[C@]1(OC(C)=O)CO[C@@H]1C[C@@H]2O [paclitaxel]
[4]
  increase in plasma levels/exposure (AUC) when co-administered with relacorilant, relative to alone: about 80%

## Cn1cc(S(=O)(=O)N2CCC3=Cc4c(cnn4-c4ccc(F)cc4)C[C@]3(C(=O)c3cc(C(F)(F)F)ccn3)C2)cn1 [relacorilant, (R)-(1-(4-fluorophenyl)-6-((1-methyl-1H-pyrazol-4-yl)sulfonyl)-4,4a,5,6,7,8-hexahydro-1H-pyrazolo[3,4-g]isoquinolin-4a-yl)(4-(trifluoromethyl)pyridine-2-yl)methanone]
[3]; healthy subjects, once daily relacorilant 350 mg, probe pioglitazone
  inhibition of CYP2C8 in vivo: does not inhibit
[5]
  IC50: 210 nM
[6]
  IC50: 1320 nM
